In ChEMBL document CHEMBL1201862, “PubChem BioAssay data set” (2004):
Calls of active or inactive are those of the source.

Columns and labels:
[1] = molecular target: Glucose-6-phosphate 1-dehydrogenase (Homo sapiens, UniProt P11413); assay: inhibition of Homo sapiens G6PD, dose series – biochemical, fluorescence, selectivity assay for P. falciparum G6PD inhibitor project, dose response (AID 504792); assay type: functional
HEK293 [2] = assay: inhibition of NOD1-driven NF-kB reporter – cell-based, luminescence, uHTS, primary screen (AID 1578); assay type: functional; details: Homo sapiens
HEK293 [3] = assay: cells; assay type: functional, cell-based; details: Homo sapiens
HEK293 [4] = assay: cells; assay type: functional, cell-based; details: Homo sapiens; remark: listed apart in the source
HEK293 [5] = assay: NOD2 signaling inhibitors in MDP-stimulated cells, cell-based, uHTS, luminescence (AID 2001); assay type: functional; details: Homo sapiens
[6] = HEK-293T viability loss after treatment – luminescence, T-cell screen hits, cytotoxicity control for TCR NF-kB inhibitor project, dose response (AID 489026); assay type: functional, cell-based;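 also: cells exposed to compound about 14 hours before the viability readout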
[7] = tested on: Streptococcus sp. 'group A'; assay: Streptococcus pyogenes SK(-)GAS viability under kanamycin – luminescence, BacTiterGlo, confirmation, counter-screen for streptokinase expression inhibitor project, dose response (AID 1900); assay type: functional, organism-based
Beta-galactosidase = Beta-galactosidase (Escherichia coli, UniProt Q8VNN2); assay: PubChem AID 485352; assay type: functional
Streptokinase A = molecular target: T1, Streptokinase A (Streptococcus pyogenes serotype M1, UniProt P10520); assay: viability-normalized secreted streptokinase activity reduction – plasminogen activation absorbance, OD405, dose response (AID 1914); assay type: functional, Streptococcus pyogenes M1 GAS;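 also: secreted streptokinase activity via plasminogen activation per viability signal from cell pellet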
T1 sequence (P10520 whole entry): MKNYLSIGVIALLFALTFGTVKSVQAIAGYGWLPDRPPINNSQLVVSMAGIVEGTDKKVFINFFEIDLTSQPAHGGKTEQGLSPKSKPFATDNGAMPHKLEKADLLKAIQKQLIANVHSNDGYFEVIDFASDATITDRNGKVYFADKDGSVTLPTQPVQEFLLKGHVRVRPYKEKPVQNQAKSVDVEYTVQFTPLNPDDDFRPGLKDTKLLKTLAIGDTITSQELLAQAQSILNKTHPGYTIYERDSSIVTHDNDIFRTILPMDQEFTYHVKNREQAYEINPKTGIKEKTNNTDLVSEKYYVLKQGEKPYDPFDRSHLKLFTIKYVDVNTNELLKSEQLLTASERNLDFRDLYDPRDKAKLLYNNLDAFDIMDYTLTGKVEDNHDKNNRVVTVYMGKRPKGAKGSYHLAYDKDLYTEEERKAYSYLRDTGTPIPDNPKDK

[8] = Trypanosoma cruzi growth suppression in host cells – NIH3T3 host cells, beta-gal luminescence, confirmation (AID 2044); assay type: functional, cell-based;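 also: intracellular parasites grown in NIH/3T3 mouse fibroblasts as host cells; luminescent beta-galactosidase reporter signal from transgenic T. cruzi replicating inside host cells; inhibitors lower the luminescence signal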
[9] = molecular target: T2, Type-1 angiotensin II receptor (Homo sapiens, UniProt P30556); assay: antagonism of angiotensin II type 1 receptor – cell-based, uHTS hits, selectivity assay for APJ receptor antagonist project, dose response (AID 463214); assay type: functional;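 also: antagonist potency against angiotensin II stimulated AT1 response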
T2 sequence (P30556 whole entry): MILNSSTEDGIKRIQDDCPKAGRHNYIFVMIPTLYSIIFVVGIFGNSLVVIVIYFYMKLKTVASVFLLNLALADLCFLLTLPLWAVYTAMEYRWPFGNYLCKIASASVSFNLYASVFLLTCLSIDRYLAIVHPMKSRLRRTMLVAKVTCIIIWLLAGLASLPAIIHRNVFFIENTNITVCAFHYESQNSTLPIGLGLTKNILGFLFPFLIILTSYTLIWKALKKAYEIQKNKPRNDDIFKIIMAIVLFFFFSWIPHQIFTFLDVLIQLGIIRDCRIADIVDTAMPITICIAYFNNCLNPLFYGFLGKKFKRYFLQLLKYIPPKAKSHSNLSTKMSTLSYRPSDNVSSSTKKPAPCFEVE

[10] = NIH3T3 cell viability loss – ATP luminescence, mouse fibroblasts, counter-screen, dose response (AID 2010); assay type: functional, cell-based;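 also: cells exposed to compound for about 90 hours before reading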
Streptococcus = assay: GAS UMAA2166 growth inhibition – luminescence, BacTiterGlo, counter-screen for streptokinase expression inhibitor project, dose response (AID 1915); assay type: functional, organism-based;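 also: potency for reduction of bacterial viability or growth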
Vero [11] = assay: viability of Vero cells under compound – cytotoxicity control for flavivirus capping enzyme inhibitors (AID 588742); assay type: functional; details: Chlorocebus sabaeus
Genome polyprotein = Genome polyprotein (dengue virus type 2, UniProt P29990); assay: flavivirus cap methylation enzyme inhibition – biochemical, confirmation dose response, primary screen (AID 588689); assay type: functional
[12] = reduction of Shn3 3'UTR-driven luciferase in osteoblasts – cell-based, Clone20 osteoblasts, firefly luciferase, cherry-picked, dose response (AID 624132); assay type: functional;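 also: firefly luciferase luminescence from reporter carrying the Shn3 3'UTR in osteoblasts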
[13] = loss of viability in HepG2 cells – cell-based, CellTiter-Glo, cherry-picked, cytotoxicity control for Shn3 inhibitor project, dose response (AID 624134); assay type: functional
[14] = non-specific 3'UTR reporter inhibition in Clone20-Shn3RL – cell-based, Renilla luciferase, cherry-picked, counter-screen for Shn3 inhibitor project, dose response (AID 624133); assay type: functional
Fatty acid synthase [15] = molecular target: T3, Fatty acid synthase (Homo sapiens, UniProt P49327); assay: inhibition of human FAS-TE enzyme activity – biochemical, endpoint fluorescence intensity, uHTS hits, dose response (AID 624327); assay type: functional;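 also: fluorescence from hydrolysis of an O-methyl fluorescein acyl ester substrate by the enzyme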
Fatty acid synthase [16] = molecular target: T3, Fatty acid synthase; assay: inhibition of human FAS-TE enzyme activity – biochemical, kinetic fluorescence intensity, dose response (AID 624326); assay type: functional;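 also: rate of fluorescence rise from hydrolysis of a fluorogenic O-methyl fluorescein ester substrate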
[17] = THP-1 cell cytotoxicity, dose response, cytotoxicity control for non-replicating M. tuberculosis project (AID 489025); assay type: functional
[18] = Luminescence Cell-Based Dose Retest to Confirm Inhibitors of Cancer Stem Cells. [Related pubchem assays (depositor defined):AID2717, AID2721]; assay type: functional; details: Homo sapiens
[19] = HepG2 cell cytotoxicity, dose response, cytotoxicity control for non-replicating M. tuberculosis project (AID 489018); assay type: functional; details: Mycobacterium tuberculosis
[20] = Vero E6 cell cytotoxicity, dose response, cytotoxicity control for non-replicating M. tuberculosis project, secondary assay (AID 492998); assay type: functional, VeroE6; details: Vero C1008
cells = assay type: functional
Paired box protein Pax-8 = Paired box protein Pax-8 (Homo sapiens, UniProt Q06710); assay: PAX8 transcriptional activity inhibition in RMG-I – RMG-I cells, luciferase, cherry-pick, dose response (AID 687027); assay type: functional, cell-based;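 also: luciferase reporter driven by Pax8 target thyroperoxidase promoter measured by SteadyGlo luminescence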
Vero [21] = assay: cells; assay type: functional, cell-based; details: Chlorocebus sabaeus
[22] = decrease of insulin promoter-GFP reporter – imaging, high-content screening, mouse beta cells (AID 1628); assay type: functional; details: MIN6
[23] = MIN6 cell viability loss – mouse insulinoma, cytotoxicity control, dose response (AID 2122); assay type: functional;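 also: confirmatory high-throughput counterscreen run to flag cytotoxic compounds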
BJ [24] = assay: BJ-TERT fibroblast viability loss – cell-based, RAS-independent, luminescence, dose response (AID 1933); assay type: functional; details: Homo sapiens
Vero [25] = assay: mammalian cell viability reduction – secondary assay, cytotoxicity control for West Nile virus antiviral project, dose response (AID 1650); assay type: functional; details: Chlorocebus sabaeus
BJ [26] = assay: cells; assay type: functional, cell-based; details: Homo sapiens
BJ [27] = assay: BJ-TERT-LT-ST fibroblast viability loss – cell-based, RAS-independent, luminescence, dose response (AID 1935); assay type: functional; details: Homo sapiens;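 also: BJ fibroblasts immortalized with TERT plus LT and ST oncogenes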
[28] = DRD fibroblast viability loss – cell-based, non-viral oncogenic, luminescence, dose response (AID 1934); assay type: functional; details: Homo sapiens
Vero [29] = assay: cells; assay type: functional; details: Chlorocebus sabaeus
[30] = molecular target: T4, Corticotropin-releasing factor receptor 2/Corticotropin-releasing factor-binding protein (Homo sapiens, UniProt P24387+Q13324); assay: Dose Response confirmation of uHTS hits for small molecule antagonists of the CRF-binding protein and CRF-R2 receptor complex.; assay type: functional; details: read-out: IC50_Mean
T4 sequence (Q13324 whole entry): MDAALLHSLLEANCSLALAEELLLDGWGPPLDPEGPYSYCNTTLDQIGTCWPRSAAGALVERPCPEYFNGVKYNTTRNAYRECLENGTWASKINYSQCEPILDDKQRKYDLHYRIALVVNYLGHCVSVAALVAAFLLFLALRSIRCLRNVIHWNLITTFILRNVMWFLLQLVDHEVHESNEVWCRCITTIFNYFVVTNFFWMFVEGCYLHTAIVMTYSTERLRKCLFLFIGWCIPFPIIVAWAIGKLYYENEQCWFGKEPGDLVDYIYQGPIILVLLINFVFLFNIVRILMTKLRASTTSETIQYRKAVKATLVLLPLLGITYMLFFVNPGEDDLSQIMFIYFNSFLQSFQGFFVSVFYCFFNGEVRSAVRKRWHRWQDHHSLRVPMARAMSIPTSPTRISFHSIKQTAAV
T4 sequence (P24387 whole entry): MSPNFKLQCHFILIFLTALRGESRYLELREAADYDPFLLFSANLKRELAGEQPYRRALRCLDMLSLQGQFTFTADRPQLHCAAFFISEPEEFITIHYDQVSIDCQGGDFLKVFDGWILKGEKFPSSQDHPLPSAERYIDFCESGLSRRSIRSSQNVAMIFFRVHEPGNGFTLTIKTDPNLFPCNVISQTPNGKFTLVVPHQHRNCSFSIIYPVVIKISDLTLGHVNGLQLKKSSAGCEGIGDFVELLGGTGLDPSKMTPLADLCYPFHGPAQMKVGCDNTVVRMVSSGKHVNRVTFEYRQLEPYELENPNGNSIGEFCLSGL

[31] = molecular target: T4, Corticotropin-releasing factor receptor 2/Corticotropin-releasing factor-binding protein; assay: activators of CRF receptor 2 with binding protein – uHTS hits, confirmation (AID 602473); assay type: functional; details: read-out: EC50_Mean

Glucose-6-phosphate 1-dehydrogenase, sequence (P11413 whole entry): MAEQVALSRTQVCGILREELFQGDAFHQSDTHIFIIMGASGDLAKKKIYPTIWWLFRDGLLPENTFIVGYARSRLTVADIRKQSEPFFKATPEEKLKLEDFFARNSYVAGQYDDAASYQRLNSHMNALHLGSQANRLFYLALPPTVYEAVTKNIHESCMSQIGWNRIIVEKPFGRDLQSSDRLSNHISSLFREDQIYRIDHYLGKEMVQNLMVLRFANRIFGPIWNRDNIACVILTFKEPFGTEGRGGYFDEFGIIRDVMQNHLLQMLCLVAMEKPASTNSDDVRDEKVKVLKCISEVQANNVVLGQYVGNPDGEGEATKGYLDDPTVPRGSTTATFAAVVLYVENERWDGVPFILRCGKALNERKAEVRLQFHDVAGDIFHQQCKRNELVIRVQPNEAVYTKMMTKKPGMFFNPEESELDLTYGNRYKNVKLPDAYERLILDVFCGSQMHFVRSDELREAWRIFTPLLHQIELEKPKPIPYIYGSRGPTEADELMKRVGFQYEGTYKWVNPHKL
T3 sequence (P49327 whole entry): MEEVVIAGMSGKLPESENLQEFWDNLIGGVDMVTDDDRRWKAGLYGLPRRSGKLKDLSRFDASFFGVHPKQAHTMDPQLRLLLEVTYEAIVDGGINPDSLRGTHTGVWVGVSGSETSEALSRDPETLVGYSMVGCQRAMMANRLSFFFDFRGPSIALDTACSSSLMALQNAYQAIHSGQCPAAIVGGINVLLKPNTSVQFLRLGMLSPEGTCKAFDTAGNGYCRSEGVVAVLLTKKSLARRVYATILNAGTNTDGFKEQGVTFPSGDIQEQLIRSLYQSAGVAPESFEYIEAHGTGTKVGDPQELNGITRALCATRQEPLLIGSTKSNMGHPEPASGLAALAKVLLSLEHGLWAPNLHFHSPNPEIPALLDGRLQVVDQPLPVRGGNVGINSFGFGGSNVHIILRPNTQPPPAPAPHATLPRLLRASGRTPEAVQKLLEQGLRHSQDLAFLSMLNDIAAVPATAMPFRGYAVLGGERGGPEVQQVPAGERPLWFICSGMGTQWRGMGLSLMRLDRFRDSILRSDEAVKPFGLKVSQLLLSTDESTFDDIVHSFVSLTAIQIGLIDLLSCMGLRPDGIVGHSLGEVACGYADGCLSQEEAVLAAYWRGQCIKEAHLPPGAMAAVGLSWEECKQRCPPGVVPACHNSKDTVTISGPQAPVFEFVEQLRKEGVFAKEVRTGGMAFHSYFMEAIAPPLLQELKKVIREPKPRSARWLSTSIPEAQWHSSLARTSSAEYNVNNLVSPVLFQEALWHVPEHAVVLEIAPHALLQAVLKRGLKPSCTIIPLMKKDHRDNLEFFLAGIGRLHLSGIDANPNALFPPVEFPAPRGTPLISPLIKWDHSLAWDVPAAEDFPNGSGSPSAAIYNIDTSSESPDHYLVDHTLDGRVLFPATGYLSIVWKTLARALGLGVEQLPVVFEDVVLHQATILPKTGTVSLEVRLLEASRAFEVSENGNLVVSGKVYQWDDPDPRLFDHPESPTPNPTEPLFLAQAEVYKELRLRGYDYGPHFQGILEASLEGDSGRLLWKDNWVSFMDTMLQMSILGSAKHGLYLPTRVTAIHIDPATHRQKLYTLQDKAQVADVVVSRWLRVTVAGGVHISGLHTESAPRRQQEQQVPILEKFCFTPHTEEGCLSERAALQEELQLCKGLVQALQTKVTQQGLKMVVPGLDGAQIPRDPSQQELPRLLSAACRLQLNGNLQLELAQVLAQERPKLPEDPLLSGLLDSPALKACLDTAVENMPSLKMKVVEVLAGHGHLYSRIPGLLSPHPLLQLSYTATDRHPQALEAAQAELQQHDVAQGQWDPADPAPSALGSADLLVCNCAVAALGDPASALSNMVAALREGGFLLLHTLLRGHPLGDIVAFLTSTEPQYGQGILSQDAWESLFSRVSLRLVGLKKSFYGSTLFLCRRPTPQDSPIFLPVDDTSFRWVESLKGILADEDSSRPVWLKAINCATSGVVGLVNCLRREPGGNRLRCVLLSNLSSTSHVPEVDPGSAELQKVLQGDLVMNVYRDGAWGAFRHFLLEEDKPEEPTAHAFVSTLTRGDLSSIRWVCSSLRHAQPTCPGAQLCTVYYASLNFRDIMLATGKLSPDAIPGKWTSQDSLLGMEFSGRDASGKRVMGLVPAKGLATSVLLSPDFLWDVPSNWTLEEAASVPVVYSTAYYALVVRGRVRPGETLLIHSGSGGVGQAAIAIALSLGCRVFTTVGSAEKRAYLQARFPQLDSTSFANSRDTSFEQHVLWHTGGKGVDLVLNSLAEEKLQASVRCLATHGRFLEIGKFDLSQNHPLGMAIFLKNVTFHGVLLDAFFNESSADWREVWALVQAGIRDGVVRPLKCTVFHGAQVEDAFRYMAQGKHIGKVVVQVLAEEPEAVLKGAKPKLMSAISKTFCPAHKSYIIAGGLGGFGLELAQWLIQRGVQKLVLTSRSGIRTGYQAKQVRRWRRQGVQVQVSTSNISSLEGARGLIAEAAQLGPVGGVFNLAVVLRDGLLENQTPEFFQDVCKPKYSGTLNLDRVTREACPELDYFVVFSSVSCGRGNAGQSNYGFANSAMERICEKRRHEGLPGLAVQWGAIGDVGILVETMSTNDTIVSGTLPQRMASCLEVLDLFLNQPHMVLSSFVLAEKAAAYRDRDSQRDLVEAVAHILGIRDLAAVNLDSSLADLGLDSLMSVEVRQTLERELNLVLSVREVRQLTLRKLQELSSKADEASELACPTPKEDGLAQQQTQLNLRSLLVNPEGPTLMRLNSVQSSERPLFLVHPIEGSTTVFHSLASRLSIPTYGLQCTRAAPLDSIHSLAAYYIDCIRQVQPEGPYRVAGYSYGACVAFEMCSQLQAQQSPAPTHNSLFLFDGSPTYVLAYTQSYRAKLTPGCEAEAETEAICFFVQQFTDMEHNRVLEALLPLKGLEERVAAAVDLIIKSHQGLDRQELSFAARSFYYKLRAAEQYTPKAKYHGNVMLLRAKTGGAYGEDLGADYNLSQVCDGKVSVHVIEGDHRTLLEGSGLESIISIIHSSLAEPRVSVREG
Genome polyprotein, sequence (P29990 2492-3391 limits assumed): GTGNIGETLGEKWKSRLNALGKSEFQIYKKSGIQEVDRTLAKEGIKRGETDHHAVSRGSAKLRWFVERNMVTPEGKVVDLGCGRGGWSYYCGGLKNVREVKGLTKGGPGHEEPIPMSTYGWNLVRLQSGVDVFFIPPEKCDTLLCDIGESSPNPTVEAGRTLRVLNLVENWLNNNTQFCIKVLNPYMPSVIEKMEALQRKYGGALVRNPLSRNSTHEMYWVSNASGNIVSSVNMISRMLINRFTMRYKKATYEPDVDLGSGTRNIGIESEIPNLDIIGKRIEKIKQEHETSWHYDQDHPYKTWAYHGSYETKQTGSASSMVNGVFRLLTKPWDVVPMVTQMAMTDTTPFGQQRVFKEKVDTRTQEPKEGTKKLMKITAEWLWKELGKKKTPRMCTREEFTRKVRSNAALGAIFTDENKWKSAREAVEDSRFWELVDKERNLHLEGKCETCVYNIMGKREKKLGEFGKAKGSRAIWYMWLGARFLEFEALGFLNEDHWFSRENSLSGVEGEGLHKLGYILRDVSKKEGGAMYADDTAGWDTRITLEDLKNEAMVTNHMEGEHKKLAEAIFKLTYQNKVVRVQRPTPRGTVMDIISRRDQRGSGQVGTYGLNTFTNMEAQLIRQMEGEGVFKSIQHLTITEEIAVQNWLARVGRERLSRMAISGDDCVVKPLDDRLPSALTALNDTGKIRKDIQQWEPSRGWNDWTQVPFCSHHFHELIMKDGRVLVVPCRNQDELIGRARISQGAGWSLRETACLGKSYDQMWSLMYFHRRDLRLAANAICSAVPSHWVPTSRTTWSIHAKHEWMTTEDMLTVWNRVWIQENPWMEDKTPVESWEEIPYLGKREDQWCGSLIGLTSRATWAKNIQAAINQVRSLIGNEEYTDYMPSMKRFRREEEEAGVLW
Beta-galactosidase, sequence (Q8VNN2 whole entry): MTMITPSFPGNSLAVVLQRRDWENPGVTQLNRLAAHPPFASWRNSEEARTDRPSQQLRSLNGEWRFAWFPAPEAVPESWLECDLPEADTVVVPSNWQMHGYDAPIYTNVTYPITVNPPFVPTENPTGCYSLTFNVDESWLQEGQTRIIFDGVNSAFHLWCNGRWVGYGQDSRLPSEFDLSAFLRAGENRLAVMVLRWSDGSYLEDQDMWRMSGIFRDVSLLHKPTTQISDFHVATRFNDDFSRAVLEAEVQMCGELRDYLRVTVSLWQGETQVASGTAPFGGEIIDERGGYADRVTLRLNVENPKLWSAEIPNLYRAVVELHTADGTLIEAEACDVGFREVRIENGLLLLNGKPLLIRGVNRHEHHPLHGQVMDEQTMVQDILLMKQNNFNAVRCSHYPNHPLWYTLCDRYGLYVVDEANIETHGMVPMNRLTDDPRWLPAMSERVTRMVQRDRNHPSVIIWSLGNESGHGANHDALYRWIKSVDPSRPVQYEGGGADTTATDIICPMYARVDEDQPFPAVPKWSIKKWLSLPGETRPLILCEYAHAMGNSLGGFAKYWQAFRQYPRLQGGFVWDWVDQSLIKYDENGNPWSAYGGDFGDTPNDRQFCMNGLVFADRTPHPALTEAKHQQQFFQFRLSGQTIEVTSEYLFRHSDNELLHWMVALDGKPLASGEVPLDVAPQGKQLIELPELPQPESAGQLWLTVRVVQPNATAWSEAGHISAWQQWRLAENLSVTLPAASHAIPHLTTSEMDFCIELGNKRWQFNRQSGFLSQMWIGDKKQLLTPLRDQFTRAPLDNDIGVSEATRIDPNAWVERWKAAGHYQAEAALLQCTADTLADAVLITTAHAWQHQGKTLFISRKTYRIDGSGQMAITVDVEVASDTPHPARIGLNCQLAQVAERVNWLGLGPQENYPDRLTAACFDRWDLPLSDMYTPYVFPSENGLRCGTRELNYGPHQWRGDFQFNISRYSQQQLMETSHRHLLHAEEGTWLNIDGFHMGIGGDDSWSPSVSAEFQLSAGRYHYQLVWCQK

CCOc1ccccc1C=NNC(=O)CCCCC(=O)NN=Cc1ccccc1OCC
IC50 [1]: > 80 µM (inactive)

O=C(Nc1ccc(Cc2ccncc2)cc1)c1ccc(S(=O)(=O)N2CCCC2)cc1
EC50 (HEK293 [2]): 2.66 µM (active)
IC50 (HEK293 [3]): 4.59 µM (active)
IC50 (HEK293 [4]): 13.6 µM (active)
IC50 (HEK293 [5]): 5.81 µM (active)
IC50 [6]: 33.4 µM (inactive)

CC(=O)OCCCNc1cc(Sc2nc3ccccc3s2)c2nonc2c1[N+](=O)[O-]
EC50 [7]: 3.26 µM (active)
EC50 (Beta-galactosidase): > 40 µM (inactive)
EC50 (Streptokinase A): > 150 µM (not active)
EC50 [8]: 1.38 µM (active)
IC50 [9]: 2.06 µM (active)
EC50 [10]: 4.76 µM (active)
EC50 (Streptococcus): 3.7 µM (active)
IC50 [1]: > 80 µM (inactive)
CC50 (Vero [11]): 16.8 µM (active)
IC50 (Genome polyprotein): > 100 µM (active)
AC50 [12]: 4.7 µM (active)
AC50 [13]: 24.4 µM (active)
AC50 [14]: 11.3 µM (active)
IC50 (Fatty acid synthase [15]): 2.08 µM (active)
IC50 (Fatty acid synthase [16]): 1.35 µM (active)

O=C(NC12CC3CC(CC(C3)C1)C2)c1ccc([N+](=O)[O-])o1
EC50 [7]: 1.2 µM (active)
EC50 (Streptokinase A): > 150 µM (not active)
EC50 (Streptococcus): 7.69 µM (active)
CC50 [17]: 12.4 µM (active)
AC50 [18]: 5.23 µM (active)
CC50 [19]: 10.4 µM (active)
CC50 [20]: 14.6 µM (active)
IC50 (cells): 7.14 µM (active)
AC50 (Paired box protein Pax-8): 4.39 µM (active)

CC(C)(C)c1ccc(C(=O)NC(=S)Nc2sc3c(c2C#N)CCC3)cc1
IC50 (Vero [21]): > 25 µM (active)

CC(C)(C)c1ccc(CN(Cc2ccccc2)C(c2ccccn2)c2nnnn2C(C)(C)C)cc1 (stereo unspecified)
IC50 [22]: 3.07 µM (active)
IC50 [23]: 3.84 µM (active)
EC50 [8]: 1.76 µM (active)
EC50 [10]: > 60 µM (not active)
AC50 [12]: 13.5 µM (active)
AC50 [13]: 67.9 µM (active)
AC50 [14]: 24.2 µM (active)

CN(C)c1ccc(C(=O)N/N=C/C23CC[C@@H](O)CC2(O)CC[C@@H]2[C@@H]3CCC3(C)C(C4=CC(=O)OC4)CCC23O)cc1 (stereo partly specified)
EC50 (BJ [24]): 3.63 µM (active)
CC50 (Vero [25]): 17.9 µM (active)
EC50 (BJ [26]): 14.2 µM (active)
EC50 (BJ [27]): 19 µM (active)
EC50 [28]: 3.56 µM (active)
IC50 (Vero [21]): > 25 µM (active)
CC50 (Vero [29]): 22 µM (active)
IC50 [30]: > 47.1 µM (inactive)
EC50 [31]: > 53 µM (inactive)

CCOC(=O)N1CCC(N(C(=O)Nc2ccc(Cl)c(Cl)c2)C(C)CC)CC1 (stereo unspecified)
IC50 [22]: 2.7 µM (active)
IC50 [23]: 2.45 µM (active)

CC(=O)[C@@]1(O)C(C)CC2C3C=C(C)C4=Cc5c(cnn5-c5ccccc5)C[C@]4(C)C3C(O)C[C@@]21C (stereo partly specified)
IC50 [22]: < 0.25 µM (active)
EC50 [7]: 5.57 µM (active)
IC50 [23]: > 16 µM (inactive)
CC50 (Vero [25]): > 100 µM (active)
EC50 (Streptokinase A): 2.97 µM (active)
EC50 (Streptococcus): > 150 µM (not active)
AC50 [18]: 1.15 µM (active)
